Tests used:
[1] = molar heat capacity at constant pressure; conditions: 101.33 kPa, Liquid, Small sample (50 mg) DSC
[2] = 101.33 kPa, Liquid; for thermal conductivity: Hot wire method; for viscosity: Cone and plate viscometry

CCCCCCCCCCCCCC[P+](CCCCCC)(CCCCCC)CCCCCC.O=S(=O)([N-]S(=O)(=O)C(F)(F)F)C(F)(F)F
Conditions	molar heat capacity at constant pressure [J/K/mol]	thermal conductivity [W/m/K]
[1], 333.15 K	1367.6	–
[1], 338.15 K	1372.2	–
[1], 343.15 K	1378.3	–
[1], 348.15 K	1386.7	–
[1], 353.15 K	1395.1	–
[1], 358.15 K	1403.5	–
[1], 363.15 K	1413.4	–
[1], 368.15 K	1426.4	–
[1], 373.15 K	1435.6	–
[1], 378.15 K	1440.9	–
[1], 383.15 K	1450.1	–
[1], 388.15 K	1457.7	–
[1], 393.15 K	1465.4	–
[1], 398.15 K	1473.8	–
[1], 403.15 K	1480.6	–
[1], 408.15 K	1488.3	–
[1], 413.15 K	1495.9	–
[1], 418.15 K	1502.8	–
[1], 423.15 K	1509.7	–
[1], 428.15 K	1517.3	–
[1], 438.15 K	1533.4	–
[1], 443.15 K	1536.4	–
[1], 448.15 K	1542.5	–
[1], 453.15 K	1550.2	–
[1], 458.15 K	1556.3	–
[1], 463.15 K	1560.9	–
[2], 285.65 K	–	0.139
[2], 293.14 K	–	0.138
[2], 297.72 K	–	0.137
[2], 302.37 K	–	0.137
[2], 313.04 K	–	0.135
[2], 323.58 K	–	0.134
[2], 333.55 K	–	0.135

CC(CC(C)(C)C)CP(=O)([O-])CC(C)CC(C)(C)C.CCCCCCCCCCCCCC[P+](CCCCCC)(CCCCCC)CCCCCC
Conditions	molar heat capacity at constant pressure [J/K/mol]	thermal conductivity [W/m/K]	viscosity [mPa·s]
[1], 293.15 K	1619.2	–	–
[1], 298.15 K	1634.7	–	–
[1], 303.15 K	1644.7	–	–
[1], 308.15 K	1655.6	–	–
[1], 313.15 K	1667.2	–	–
[1], 318.15 K	1678	–	–
[1], 323.15 K	1688	–	–
[1], 328.15 K	1698.1	–	–
[1], 333.15 K	1708.2	–	–
[1], 338.15 K	1717.4	–	–
[1], 343.15 K	1725.9	–	–
[1], 348.15 K	1736	–	–
[1], 353.15 K	1745.3	–	–
[1], 358.15 K	1754.5	–	–
[1], 363.15 K	1763.8	–	–
[2], 282.47 K	–	0.137	–
[2], 292.94 K	–	0.136	–
[2], 298.04 K	–	0.135	–
[2], 298.15 K	–	–	847.3
[2], 303.15 K	–	0.135	–
[2], 313.15 K	–	–	568.54
[2], 313.45 K	–	0.133	–
[2], 323.15 K	–	–	387.46
[2], 323.45 K	–	0.132	–
[2], 333.15 K	–	–	125.61
[2], 333.55 K	–	0.131	–
[2], 343.59 K	–	0.131	–
[2], 353.62 K	–	0.131	–

CCCC[P+](C)(CCCC)CCCC.COS(=O)(=O)[O-] [tributylmethylphosphonium methyl sulfate]
[2]
Conditions	thermal conductivity [W/m/K]
283.34 K	0.157
293.28 K	0.156
298.36 K	0.155
303.45 K	0.155
313.5 K	0.153
323.6 K	0.153
333.58 K	0.153
343.61 K	0.153
353.51 K	0.153

CCCCCCCCCCCCCC[P+](CCCCCC)(CCCCCC)CCCCCC.FC(F)(F)C(F)(F)[P-](F)(F)(F)(C(F)(F)C(F)(F)F)C(F)(F)C(F)(F)F
[2]
Conditions	thermal conductivity [W/m/K]
282.19 K	0.126
292.99 K	0.125
298.41 K	0.125
303.54 K	0.125
314.37 K	0.123
325.65 K	0.123
334.58 K	0.123
344.18 K	0.123
355.07 K	0.121

From the NIST ThermoML archive (doi:10.1016/j.jct.2013.04.013)
